From patent US5734014A, “Elafin derivative” (Tsumura & Co., priority 1992, dated 1998)

Experiments:
elastase = test: Elastase inhibiting activity of purified recombinant elafin (Referential Examples 1 and 2); assay type: biochemical; conditions: elafin produced by Escherichia coli, purified by reverse phase HPLC
endotoxin-treated mice = test: Test 3: survival rate in mouse endotoxin shock model; assay type: in vivo, ICR male mice; conditions: test substance i.v. four times, survivors/10 mice
Method: Using a mouse endotoxin shock model, effects of the elafin derivative according to this invention on the survival rate were investigated while using natural elafin and urinastatin, which is a urinary trypsin inhibitor having anti-elastase action, as comparative substances. After endotoxin was administered at 6 mg/Kg to the caudal veins of ten 7 weeks-old ICR male mice (CHARLES RIVER JAPAN, INC.) in each group, the mice were administered with one of the test substance. Their survival rate was observed along the passage of time. The test substance was administered to the caudal veins of the mice four times in total, that is, 10 minutes before the administration of endotoxin and 3 hours, 6 hours and 12 hours after its administration.
Employed as the test substances were natural elafin, the elafin derivative according to the present invention in which the methionine at the 25th had been modified to leucine (hereinafter called "L-elafin") and urinastatin ("MIRACLID"™;product of MOCHIDA PHARMACEUTICAL CO., LTD.; hereinafter called "UTI").
Natural elafin and L-elafin were each dissolved in a buffer of 20 mM sodium acetate physiological saline, in which 1% bovine serum albumin had been added, whereas UTI was dissolved in the physiological saline.
As a control, a buffer of 20 mM sodium acetate physiological saline, in which 1% bovine serum albumin had been added, was used.

neutrophilic elastase = molecular target: T1, neutrophilic elastase (Homo sapiens, UniProt P08246); test: Test 1: neutrophilic elastase inhibiting activity of non-oxidized and oxidized elafins (AAPV-pNA substrate); assay type: biochemical
T1 construct: purchased Elastin Products Co., Inc
T1 sequence (P08246 30-267): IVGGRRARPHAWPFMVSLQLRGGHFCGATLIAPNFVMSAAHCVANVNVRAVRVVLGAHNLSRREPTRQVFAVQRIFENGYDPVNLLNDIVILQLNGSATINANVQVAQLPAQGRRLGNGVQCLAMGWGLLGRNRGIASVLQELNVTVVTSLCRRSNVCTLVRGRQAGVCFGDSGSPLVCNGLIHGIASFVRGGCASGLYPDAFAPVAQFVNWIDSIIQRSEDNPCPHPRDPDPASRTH
Method: Natural elafin and the elafin derivatives were oxidized, and variations in their inhibiting activity against neutrophilic elastase were investigated. Oxidative reaction solutions of natural elafin and the elafin derivatives as elastase inhibitors were each prepared by adding 220 μM of H2 O2 and 6 nM of myeloperoxidase (product of Elastin Products Co., Ltd.) to 250 μl of a phosphate buffer (product of TAKARA SHUZO CO., LTD.) which contained 5 μg of the corresponding elafin or elafin derivative, incubating the resulting mixture at 37° C. for 20 minutes and then adding the same volume of a reaction terminating solution (catalase 0.2 mg/ml, 5 mM methionine).
Further, the measurement of elastase activity was conducted as will be described below by using 5-100 μl of the oxidative reaction solution (inhibitor concentration: 10 μg/ml) of natural elafin and the elafin derivatives prepared as described above.

[1] = 12 hrs after administration of endotoxin (6 mg/Kg, caudal vein)
[2] = 14 hrs after administration of endotoxin (6 mg/Kg, caudal vein)
[3] = 16 hrs after administration of endotoxin (6 mg/Kg, caudal vein)
[4] = 18 hrs after administration of endotoxin (6 mg/Kg, caudal vein)
[5] = 20 hrs after administration of endotoxin (6 mg/Kg, caudal vein)
[6] = 22 hrs after administration of endotoxin (6 mg/Kg, caudal vein)
[7] = 24 hrs after administration of endotoxin (6 mg/Kg, caudal vein)
[8] = 26 hrs after administration of endotoxin (6 mg/Kg, caudal vein)
[9] = 28 hrs after administration of endotoxin (6 mg/Kg, caudal vein)
[10] = 30 hrs after administration of endotoxin (6 mg/Kg, caudal vein)
[11] = 36 hrs after administration of endotoxin (6 mg/Kg, caudal vein)
[12] = 48 hrs after administration of endotoxin (6 mg/Kg, caudal vein)

“Natural elafin: 57-residue elastase inhibitor isolated from psoriatics (SEQ ID NO:2); produced recombinantly in Escherichia coli or yeast (AQEPVKGPVSTKPGSCPIILIRCAMLNPPNRCLKDTDCPGIKKCCEGSCGMACFVPQ)” was tested. Which elastase inhibiting activity (elastase) did it give?
The elastase inhibiting activity was “strong inhibiting activity”.

And the Survival rate (endotoxin-treated mice; [1])?
The Survival rate was 10/10.

And the Survival rate (endotoxin-treated mice; [2])?
The Survival rate was 10/10.

What about the Survival rate (endotoxin-treated mice; [3]) of the same substance?
Its Survival rate is 9/10.

What about the Survival rate (endotoxin-treated mice; [4]) of the same substance?
Its Survival rate is 8/10.

What about the Survival rate (endotoxin-treated mice; [5]) of the same substance?
The Survival rate was 5/10.

What about the Survival rate (endotoxin-treated mice; [6]) of the same substance?
Its Survival rate is 5/10.

What about the Survival rate (endotoxin-treated mice; [7]) of the same substance?
Its Survival rate is 3/10.

What about the Survival rate (endotoxin-treated mice; [8]) of the same substance?
Its Survival rate is 2/10.

What about the Survival rate (endotoxin-treated mice; [9]) of the same substance?
The Survival rate was 1/10.

And the Survival rate (endotoxin-treated mice; [10])?
Its Survival rate is 0/10.

And the Survival rate (endotoxin-treated mice; [11])?
The Survival rate was 0/10.

What about the Survival rate (endotoxin-treated mice; [12]) of the same substance?
The Survival rate was 0/10.

What about the stability to oxidation (neutrophilic elastase; general statement of the inventors' findings) of the same substance?
Its stability to oxidation is “unstable to oxidation”.

And the “variation in inhibiting activity against neutrophilic elastase by oxidation” value (neutrophilic elastase; oxidized with 220 μM H2O2 and 6 nM myeloperoxidase, 37° C., 20 minutes, FIG. 3)?
The value was “significantly decrease”.

With “Reduced elafin: elafin in the completely reduced form, before formation of S--S bonds (AQEPVKGPVSTKPGSCPIILIRCAMLNPPNRCLKDTDCPGIKKCCEGSCGMACFVPQ)” as the substance, how does the elastase inhibiting activity (elastase) read?
Its elastase inhibiting activity is “did not show any inhibiting activity”.

“urinastatin (MIRACLID) [UTI, product of MOCHIDA PHARMACEUTICAL CO., LTD]” was tested. Which Survival rate (endotoxin-treated mice; [1]) did it give?
The Survival rate was 10/10.

What about the Survival rate (endotoxin-treated mice; [2]) of the same substance?
Its Survival rate is 10/10.

And the Survival rate (endotoxin-treated mice; [3])?
The Survival rate was 8/10.

What about the Survival rate (endotoxin-treated mice; [4]) of the same substance?
Its Survival rate is 8/10.

What about the Survival rate (endotoxin-treated mice; [5]) of the same substance?
The Survival rate was 4/10.

And the Survival rate (endotoxin-treated mice; [6])?
Its Survival rate is 4/10.

And the Survival rate (endotoxin-treated mice; [7])?
Its Survival rate is 2/10.

What about the Survival rate (endotoxin-treated mice; [8]) of the same substance?
The Survival rate was 1/10.

And the Survival rate (endotoxin-treated mice; [9])?
Its Survival rate is 0/10.

And the Survival rate (endotoxin-treated mice; [10])?
Its Survival rate is 0/10.

What about the Survival rate (endotoxin-treated mice; [11]) of the same substance?
Its Survival rate is 0/10.

What about the Survival rate (endotoxin-treated mice; [12]) of the same substance?
The Survival rate was 0/10.
